Experiments:
IP-10 = test: Suppression of IP-10 production by IFNγ-activated human epidermal keratinocytes; format: cell-based
Source text: Talarozole Metabolites for Suppression of IP-10 Production by IFNγ-Activated Human Epidermal Keratinocytes
IP-10, a member of the CXC subfamily of chemokines, attracts T-lymphocytes and natural killer cells. […] In particular, epidermal keratinocytes of psoriatic lesions express elevated levels of IP-10. Suppression of IP-10 expression by activated keratinocytes may represent a novel target for therapeutic intervention of inflammatory skin disorders.

[1] = Pharmacokinetics of radioactivity in plasma after oral 14C-labeled talarozole, human; format: in vivo; details: male, single oral 4 mg
Source text: (§1) Mouse, rat, dog and human were the species used for the safety evaluations of talarozole. More specifically, the disposition of ^14C-labeled talarozole was examined in mice, rats, dogs and humans after oral administration to provide information regarding the absorption, metabolism and excretion of talarozole.
Male and female CD-1 mice (19-29 g, n=3/sex/timepoint for blood sampling, n=3/sex for mass balance), Sprague Dawley rats (0.205-0.237 kg, n=3/sex/timepoint for blood sampling, n=3/sex for mass balance) and beagle dogs (7-12 kg, n=3) were given a single oral dose of ^14C-labeled talarozole in 20% hydroxyl propyl B-cyclodextrin at 5 mg/kg. […] Radioactivity in various matrices were measured by liquid scintillation counting (LSC). […] Radioactivity peaks were integrated and the percent distribution of individual metabolites in each sample was determined. […] For all species, plasma, urine and fecal samples were pooled across animals and analyzed. Plasma was analyzed at several time-points out to 24 hours. […] PK parameter values were determined by non-compartmental methods using WinNonlin™. • HPLC data for separations described in Example 1: • LC system: Waters 2695 Separations Module • Analytic column: C18 column, 4.6×150 mm, 3 μm • Flow rate: 1.0 mL/min • Mobile phase A: 2% HCOOH in H2O (pH 3.2) • Mobile phase B: CH3CN • Gradient: […]

[2] = Metabolite radioprofiling of plasma, urine and feces, rat; format: in vivo; details: for Feces % Dose as the component / Plasma 0-24 h AUC (% Sample) / Plasma 0-24 h AUC of the radioactive component / Urine % Dose as the component: rat (5 mg/kg) oral 14C-talarozole; for Urine % Dose as the component: urine 0-48 h; for Plasma 0-24 h AUC, total radioactivity: rat (5 mg/kg)
Protocol: (§2) Male and female CD-1 mice (19-29 g, n=3/sex/timepoint for blood sampling, n=3/sex for mass balance), Sprague Dawley rats (0.205-0.237 kg, n=3/sex/timepoint for blood sampling, n=3/sex for mass balance) and beagle dogs (7-12 kg, n=3) were given a single oral dose of ^14C-labeled talarozole in 20% hydroxyl propyl B-cyclodextrin at 5 mg/kg. Healthy human male volunteers (76.6-107.9 kg, n=5) were dosed with a single oral dose of 4 mg ^14C-labeled rambazole in ethanol. Blood samples were collected at selected timepoints after dosing and plasma was prepared. Urine and feces were collected for 2, 7 and 8 days. For the human study, up to 288 hours post-dose and semen samples were obtained 2 and 4 hours post-dose. Radioactivity in various matrices were measured by liquid scintillation counting (LSC). Select plasma, urine and fecal samples were subjected to metabolite radioprofiling and characterization, and in the human study, semen samples. Metabolite radioprofiling was accomplished using HPLC with fraction collection followed by solid scintillation counting (Packard TopCount—see representative HPLC run data below). Radioactivity peaks were integrated and the percent distribution of individual metabolites in each sample was determined. Metabolite characterization and identification were accomplished by LC/MS (Finnigan MAT LCQ in positive or negative ESI mode) in conjunction with an appropriate radioactive monitor (RAM). For all species, plasma, urine and fecal samples were pooled across animals and analyzed. Plasma was analyzed at several time-points out to 24 hours. Urine was analyzed over one time-interval (0-24 hours for mouse, 0-48 hours for rat, 0-72 hours for dog, and for in the human study, 0-12, 12-24, 24-48, 0-48 hours. Feces was analyzed over 2-3 time intervals (0-24 and 24-48 hours for mouse and rat; 0-24, 24-48, and 48-72 hours for male dogs; and 24-48, 48-72, and 72-96 hours for female dogs). In the human study, feces were analyzed for 0-48, 48-96, 96-144, 144-192, 192-288, 0-144, 144-288 and 0-288 hours. PK parameters for ^14C-labeled talarozole radioactivity was determined from the mean (mouse and rat) or individual (dog and human) plasma concentration versus time data. PK parameter values were determined by non-compartmental methods using WinNonlin™. • HPLC data for separations described in Example 1: • LC system: Waters 2695 Separations Module • Analytic column: C18 column, 4.6×150 mm, 3 μm • Flow rate: 1.0 mL/min • Mobile phase A: 2% HCOOH in H2O (pH 3.2) • Mobile phase B: CH3CN • Gradient: […]

[3] = Metabolite radioprofiling of plasma, urine, feces and semen, human; details: in vivo
Protocol: as §2

[4] = Pharmacokinetics of radioactivity in plasma after oral 14C-labeled talarozole, rat; format: in vivo; details: single oral 5 mg/kg; for AUC0-t: 0-48 h
Source text: as §1
as §2, with “Metabolite characterization and identification were accomplished by LC/MS (Finnigan MAT LCQ in positive or negative ESI mode) in conjunction with an appropriate radioactive monitor (RAM).” left out

[5] = Excretion of radioactivity (mass balance), human; format: in vivo; details: male, 0-288, oral 4 mg
Source text: as §1, §2

[6] = Pharmacokinetics of radioactivity in plasma after oral 14C-labeled talarozole, dog; format: in vivo; details: single oral 5 mg/kg; for AUC0-t: 0-168 h
Source text: as §1
as §2, with “Metabolite characterization and identification were accomplished by LC/MS (Finnigan MAT LCQ in positive or negative ESI mode) in conjunction with an appropriate radioactive monitor (RAM).” left out

[7] = Metabolite radioprofiling of plasma, urine and feces, dog; format: in vivo; details: for Feces % Dose as the component / Plasma 0-24 h AUC (% Sample) / Plasma 0-24 h AUC of the radioactive component: dog (5 mg/kg) oral 14C-talarozole; for Plasma 0-24 h AUC, total radioactivity: dog (5 mg/kg)
Protocol: as §2

[8] = tested on: vaginal keratinization induced by estrogenic treatment; test: Inhibition of vaginal keratinization induced by estrogenic treatment in ovariectomized rats; format: in vivo, rat; details: ovariectomized rats with estrogenic treatment; M4 oral during 3 days
Source text: Effects on Epithelial Differentiation in Rat Vagina: Inhibition of Vaginal Keratinization Induced by Estrogenic Treatment in Ovariectomized Rats by Oral Administration of Talarozole Metabolite M4
This animal model is based on the observation that retinoic acid (RA) suppresses the keratinization process in the stratified squamous epithelium of the vagina induced by estrogenic treatment in ovariectomized rats (Sietsema & DeLuca, 1982; Geiger & Weiser, 1989).

[9] = Pharmacokinetics of radioactivity in plasma after oral 14C-labeled talarozole, mouse; format: in vivo; details: single oral 5 mg/kg; for AUC0-t: 0-48 h
Source text: as §1
as §2, with “Metabolite characterization and identification were accomplished by LC/MS (Finnigan MAT LCQ in positive or negative ESI mode) in conjunction with an appropriate radioactive monitor (RAM).” left out

[10] = Excretion of radioactivity (mass balance), rat; format: in vivo; details: 0-168 h, oral 5 mg/kg; for % in Feces (percent of dose recovered, total radioactivity) / % in Urine (percent of dose recovered, total radioactivity): 5 mg/kg
Source text: as §1, §2

[11] = Metabolite radioprofiling of plasma, urine and feces, mouse; format: in vivo; details: for Feces % Dose as the component / Plasma 0-24 h AUC (% Sample) / Plasma 0-24 h AUC of the radioactive component / Urine % Dose as the component: mouse (5 mg/kg) oral 14C-talarozole; for Urine % Dose as the component: urine 0-24 h; for Plasma 0-24 h AUC, total radioactivity: mouse (5 mg/kg)
Protocol: as §2

[12] = listed as 14C-labeled talarozole
[13] = female, listed as 14C-Talarozole
[14] = female, listed as 14C-labeled talarozole
[15] = male, listed as 14C-labeled talarozole

AUC0-∞ [1]: 301 hr-ng equiv/g | AUC0-t ([1]; 0-48 h): 269 hr-ng equiv/g | Feces % Dose as the component ([2]; female): 4.60 % Dose | Plasma 0-24 h AUC (% Sample) ([2]; female): 39.17% | Plasma 0-24 h AUC of the radioactive component ([2]; female): 3523.2 ng·h/g | Urine % Dose as the component ([2]; female): 1.90 % Dose | Feces % Dose as the component ([2]; male): 5.34 % Dose | Plasma 0-24 h AUC (% Sample) ([2]; male): 11.05% | Plasma 0-24 h AUC of the radioactive component ([2]; male): 778.38 ng·h/g | Urine % Dose as the component ([2]; male): 0.10 % Dose | Plasma 0-24 h AUC, total radioactivity ([2]; female): 8995.6 ng*hr/g F | Plasma 0-24 h AUC, total radioactivity ([2]; male): 7045.6 ng·h/g/M | Plasma 0-24 h AUC of the radioactive component ([3]; human, po, 0.067 mg/kg): 12.74 ng·h/g | Semen (radioactive component in semen samples) [3]: minor radioactive components | Urine % Dose as the component [3]: not found | Plasma 0-24 h AUC, total radioactivity ([3]; male, human, 0.067 mg/kg): 211.3 ng·h/g | Plasma 0-24 h AUC (% Sample), % of total plasma radioactivity ([3]; male, human, po, 0.067 mg/kg): 6.03% | AUC0-∞ ([4]; female): 7810 hr-ng equiv/g | AUC0-t ([4]; female): 7670 hr-ng equiv/g | AUC0-∞ ([4]; male): 6960 hr-ng equiv/g | AUC0-t ([4]; male): 6720 hr-ng equiv/g | Total % Recovered [5]: 87.7% | % in Feces (percent of dose recovered, total radioactivity) ([5]; listed as 14C-Talarozole): 80.36% | % in Urine (percent of dose recovered, total radioactivity) ([5]; listed as 14C-Talarozole): 7.29% | % in Feces (percent of dose recovered, total radioactivity) [5, 12]: 72.2% | % in Urine (percent of dose recovered, total radioactivity) [5, 12]: 7.3% | AUC0-∞ ([6]; female): 21902 hr-ng equiv/g | AUC0-t ([6]; female): 21388 hr-ng equiv/g | AUC0-∞ ([6]; male): 19970 hr-ng equiv/g | AUC0-t ([6]; male): 19555 hr-ng equiv/g | Feces % Dose as the component ([7]; female): 1.59 % Dose | Plasma 0-24 h AUC (% Sample) ([7]; female): 23.20% | Plasma 0-24 h AUC of the radioactive component ([7]; female): 4228.0 ng·h/g | Feces % Dose as the component ([7]; male): 1.22 % Dose | Plasma 0-24 h AUC (% Sample) ([7]; male): 24.24% | Plasma 0-24 h AUC of the radioactive component ([7]; male): 4132.9 ng·h/g | Plasma 0-24 h AUC, total radioactivity ([7]; female): 18225 ng*hr/g F | Plasma 0-24 h AUC, total radioactivity ([7]; male): 17047 ng·h/g/M | AUC0-∞ ([9]; female): 6767 hr-ng equiv/g | AUC0-t ([9]; female): 6632 hr-ng equiv/g | AUC0-∞ ([9]; male): 10276 hr-ng equiv/g | AUC0-t ([9]; male): 10215 hr-ng equiv/g | % in Cage Rinse (percent of dose recovered) ([10]; female): 3.88% | Total % Recovered ([10]; female): 95.4% | % in Feces (percent of dose recovered, total radioactivity) [10, 13]: 77.57 F % | % in Urine (percent of dose recovered, total radioactivity) [10, 13]: 10.07 F % | % in Feces (percent of dose recovered, total radioactivity) [10, 14]: 77.5% | % in Urine (percent of dose recovered, total radioactivity) [10, 14]: 10.1% | % in Cage Rinse (percent of dose recovered) ([10]; male): 4.01% | Total % Recovered ([10]; male): 95.2% | % in Feces (percent of dose recovered, total radioactivity) ([10]; male, listed as 14C-Talarozole): 77.53 M % | % in Urine (percent of dose recovered, total radioactivity) ([10]; male, listed as 14C-Talarozole): 6.33 M % | % in Feces (percent of dose recovered, total radioactivity) [10, 15]: 77.5% | % in Urine (percent of dose recovered, total radioactivity) [10, 15]: 6.3% | Feces % Dose as the component ([11]; female): 7.04 % Dose | Plasma 0-24 h AUC (% Sample) ([11]; female): 21.48% | Plasma 0-24 h AUC of the radioactive component ([11]; female): 1420.2 ng·h/g | Feces % Dose as the component ([11]; male): 6.11 % Dose | Plasma 0-24 h AUC (% Sample) ([11]; male): 15.15% | Plasma 0-24 h AUC of the radioactive component ([11]; male): 1377.5 ng·h/g | Plasma 0-24 h AUC, total radioactivity ([11]; female): 66113.0 ng*hr/g F | Plasma 0-24 h AUC, total radioactivity ([11]; male): 9092.5 ng·h/g/M
Structure (SMILES): CCC(CC)[C@H](c1ccc(Nc2nc3ccccc3s2)cc1)n1cncn1 [Talarozole, (R)—N-[4-[2-ethyl-1-(1H-1,2,4-triazole-1-yl)butyl]phenyl]-2-benzothiazolamine]
IP-10 expression (IP-10): down regulate dose-dependently | ED50-value for complete suppression (keratinization score=0) [8]: 1.0 mg/kg/day | Urine % Dose as the component ([11]; female): No unchanged ^14C-labeled talarozole was detected | Urine % Dose as the component ([11]; male): No unchanged ^14C-labeled talarozole was detected
